Values quoted from earlier work in article PMC2225439, “Amyloid as a Depot for the Formulation of Long-Acting Drugs” (PLoS Biology, 2008).
Where a SMILES comes first, the peptide text is derived from it. [ ]: non-standard residue; d: D form. The star is where a group is joined. dPhe(4-NHCONH2) = NC(=O)Nc1ccc(C[C@@H](N)C(=O)O)cc1; Dihydroorotyl(S) = O=C1C[C@@H](C(=O)*)NC(=O)N1; dPhe(4-Cl) = N[C@H](Cc1ccc(Cl)cc1)C(=O)O; Phe(4-NH2) = Nc1ccc(C[C@H](N)C(=O)O)cc1; d2Nal = N[C@H](Cc1ccc2ccccc2c1)C(=O)O; Lys(iPr) = CC(C)NCCCC[C@H](N)C(=O)O; d3Pal = N[C@H](Cc1cccnc1)C(=O)O

Test system: histamine release
Conditions: cited from earlier work

SMILES: CC(=O)N[C@H](Cc1ccc2ccccc2c1)C(=O)N[C@H](Cc1ccc(Cl)cc1)C(=O)N[C@H](Cc1cccnc1)C(=O)N[C@@H](CO)C(=O)N[C@@H](Cc1ccc(NC(=O)[C@@H]2CC(=O)NC(=O)N2)cc1)C(=O)N[C@H](Cc1ccc(NC(N)=O)cc1)C(=O)N[C@@H](CC(C)C)C(=O)N[C@@H](CCCCNC(C)C)C(=O)N1CCC[C@H]1C(=O)N[C@H](C)C(N)=O [L13, Ac-DNal-DCpa-DPal-Ser-Aph(LHor)-DAph(Cbm)-Leu-ILys-Pro-DAla-NH2] (Ac-[d2Nal][dPhe(4-Cl)][d3Pal]S[Phe(4-NH2)](Dihydroorotyl(S))[dPhe(4-NHCONH2)]L[Lys(iPr)]P[dA]-NH2)
- safety margin with regard to histamine release: good safety margin
